Test results: ChEMBL document CHEMBL1124317, “Rationale for the synthesis and preliminary biological evaluation of highly active new antitumor nitrosoureido sugars” (J Med Chem, 1989)

What was measured:
Mus musculus [1] = assay: The number of B16 melanocarcinoma mice survived after 60 days with compound in olive oil injected by a dose of 20 mg/kg intraperitoneally; 2/20; assay type: functional; settings: route intraperitoneal
Mus musculus [2] = assay: Anti tumor activity in olive oil when treated to mice with B16 melanocarcinoma with 20 mg/kg dose of compound intraperitoneally was expressed as percent of treated to control (T/C %); assay type: functional; settings: route intraperitoneal
Mus musculus [3] = assay: The number of B16 melanocarcinoma mice survived after 30 days with compound in olive oil injected by a dose of 20 mg/kg intraperitoneally; 13/20; assay type: functional; settings: route intraperitoneal
Mus musculus [4] = assay: The number of Lewis lung mice survived after 30 days with compound in olive oil injected by a dose of 20 mg/kg intraperitoneally; 18/20; assay type: functional; settings: route intraperitoneal
Mus musculus [5] = assay: The number of Lewis lung mice survived after 60 days with compound in olive oil injected by a dose of 20 mg/kg intraperitoneally; 15/20; assay type: functional; settings: route intraperitoneal
Mus musculus [6] = assay: The number of L1210 Leukemia mice survived after 60 days with compound in olive oil injected by a dose of 20 mg/kg intraperitoneally; 10/15; assay type: functional; settings: route intraperitoneal
Mus musculus [7] = species: Mus musculus; assay: Median survival time of the non surviving mice; there are two deaths on day 27, one death on day 29, and two deaths on day 41; assay type: functional, organism-based
Mus musculus [8] = assay: Median survival time of the non surviving mice; treated with 20 mg/kg of compound in olive oil to mice with B16 Melanocarcinoma; 14-55; assay type: functional
Mus musculus [9] = assay: Ratio of mice died to that of mice treated with 20 mg/kg of compound in olive oil intraperitoneally with B16 Melanocarcinoma; 0/20; assay type: functional; settings: route intraperitoneal
Mus musculus [10] = assay: Ratio of mice died to that of mice treated with 20 mg/kg of compound in olive oil intraperitoneally with L1210 leukemia tumor; 0/15; assay type: functional; settings: route intraperitoneal
Mus musculus [11] = assay: Ratio of mice died to that of mice treated with 20 mg/kg of compound in olive oil intraperitoneally with Lewis lung; 0/20; assay type: functional; settings: route intraperitoneal
Mus musculus [12] = assay: The number of L1210 Leukemia mice survived after 30 days with compound in olive oil injected by a dose of 20 mg/kg intraperitoneally; 12/15; assay type: functional; settings: route intraperitoneal

COC1CC(NC(=O)N(CCCl)N=O)C(O)C(CNC(=O)N(CCCl)N=O)O1 (configuration not stated)
Survivals (Mus musculus [1]): 2
T/C (Mus musculus [2]): 225%
Survivals (Mus musculus [3]): 13
Survivals (Mus musculus [4]): 18
Survivals (Mus musculus [5]): 15
Survivals (Mus musculus [6]): 10
Median survival time (Mus musculus [7]): there are two deaths on day 27, one death on day 29, and two deaths on day 41
Median survival time (Mus musculus [8]): 31.37
Ratio (Mus musculus [9]): 0
Ratio (Mus musculus [10]): 0
Ratio (Mus musculus [11]): 0
Survivals (Mus musculus [12]): 12
